Test results: patent US20030199476A1, “Medicament for the stimulation of leucopoiesis and treatment of tumour and protozoan diseases acarinosis and arthropod-borne diseases and a method for production thereof” (priority 2000, published 2003)
Like-named read-outs stand apart in the source and are kept apart here.

What was measured:
[1] = test system: Entamoeba histolytica HM-1:IMSS; test: Cytotoxicity of alkylphosphocholines on amebae (Trypan blue count, Probit); assay type: cell-based; conditions: strain HM-1:IMSS, read-out: ED50 (the source's name)
Method: (§1) Entamoeba histolytica SFL-3 and HM-1: IMSS (American Type Culture collection, order number ATCC 30459), pathogenic amebae of zymodeme II, were cultured, at 37° C., in TYI-S-33 medium (Diamond et al., Trans. Roy. Soc. Trop. Med. Hyg. 72: 431-432 (1978)) containing 10% bovine serum. The cultures of SFL-3 were kept in 100 ml glass bottles while the cultures of HM-1:IMSS were kept in 50 ml tissue culture flasks.
(§2) 38 h cultures of E histolytica were used for measuring the cytotoxicity of the alkylphosphocholines. The amebae were released from the culture vessels by shaking, centrifuged down for 3 min at 2 000 revolutions per minute and 4° C. in a Heraeus Minifuge RF, resuspended in 20 ml of TYI-S-33 medium and counted in a hemocytometer chamber.
(§3) For each measurement, in each case 8-10×10^5 amebae were provided in 12 ml of medium in Pyrex tubes fitted with a screw closure and the alkylphosphocholine was added in a volume of 660 μl. […] (w/v) ethanol in double-distilled water was used for dissolving hexadecylphosphocholine and octadecylphosphocholine, while double-distilled water on its own was used for all the other substances and the liposomal preparations. 5% ethanol or double-distilled water was correspondingly added to the control cultures. The concentrations of alkylphosphocholines employed were 100 μM, 50 μM, 20 μM, 10 μM and 5 μM. Six cultures were in each case prepared for each of the concentrations.
(§4) The effect of the alkylphosphocholines was determined after 24 h and after 48 h. For this, in each case three of the cultures were shaken up and transferred into in each case three plastic centrifuge tubes. The amebae were centrifuged down for 5 min at 2 200 rpm and 4° C. and suspended in a final volume of 1 ml in a 1:1 mixture of Trypan blue (Sigma) and PBS. Each of the samples was then counted in the hemocytometer and the number of living and dead, stained blue due to having taken up the die, amebae was recorded.
(§5) The results were analyzed using the “Probit” program (Wernsdorfer and Wernsdorfer, Mitt. Österr. Ges. Tropenmed. Parasitol. 17:221-228 (1995)).
(§6) The tests were carried out as described above. The E. histolytica strains SFL-3 and HM-1:IMSS were tested. In each case six cultures were prepared for each concentration of alkylphosphocholine in pure or liposomal form. Three of the cultures were counted after […] and three further cultures were counted after 48 h. In each case two independent experiments were carried out for each of the two strains.

[2] = test system: Entamoeba histolytica SFL-3; test: as above; assay type: cell-based; conditions: read-out: ED50 (the source's name)
Method: as §1, §2, §3, §4, §5, §6

[3] = Activity tests: necessary administration quantities; assay type: in vivo; conditions: Form: Free (oral); rats/mice
Source text: (§7) Toxicity and Activity Tests

Toxicity tests = assay type: in vivo; conditions: rats/mice; form not stated
Source text: as §7

| Structure (SMILES) | EC50 ([1]; day 1 (24 h)) | EC50 ([1]; day 2 (48 h)) | EC50 ([2]; strain SFL-3, day 1 (24 h)) | EC50 ([2]; strain SFL-3, day 2 (48 h)) | Necessary administration quantities [3] | Toxicity (Toxicity tests) |
| --- | --- | --- | --- | --- | --- | --- |
| CCCCCCCCCCCCCCCCOP(=O)([O-])OCC[N+](C)(C)C [APC 1, hexadecylphosphocholine] | 94 µM | 83 µM | 88 µM | 50 µM | 60 µmol | 90 µmol |
| CCCCCCCCCCCCCCCCCCOP(=O)([O-])OCC[N+](C)(C)C [APC 2, octadecylphosphocholine] | 80 µM | 70 µM | 36 µM | 24 µM |  |  |
| CCCCCCCC/C=C\CCCCCCCCOP(=O)([O-])OCC[N+](C)(C)C [APC 9, oleylphosphocholine] | 121 µM | 80 µM | 32 µM | 16 µM | 20 µmol |  |
| CCCCCCCC/C=C\CCCCCCCCCOP(=O)([O-])OCC[N+](C)(C)C [APC 10, (Z)-10-nonadecenylphosphocholine] | 112 µM | 87 µM | 24 µM | 20 µM |  |  |
| CCCCCCCC/C=C\CCCCCCCCCCCCOP(=O)([O-])OCC[N+](C)(C)C [Erucyl-PC] |  |  |  |  | 100 µmol |  |
| CCCCCCCCCCCCCCCCCCCOP(=O)([O-])OCC[N+](C)(C)C [Nonadecyl-PC] |  |  |  |  | 20 µmol |  |
